“And” between values parts separate entries of the source, which are not always exact repeats. Identical values can stand only once.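 Results reflect a 48-hour exposure of cells in 96-well plates to compound at five concentrations. GI50: concentration for 50% inhibition of growth. TGI: concentration producing complete growth inhibition.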 Where a SMILES comes first, the peptide text is derived from it. [ ]: non-standard residue; d: D form. The star is where a group is joined. ξ: configuration not given here. NMeN = CN[C@@H](CC(N)=O)C(=O)O; NMeV = CN[C@H](C(=O)O)C(C)C; ξNMeV = CNC(C(=O)O)C(C)C; Boc = CC(C)(C)OC(=O)*; ξNMeA = CNC(C)C(=O)O
What was measured:
Experiment in all cases: inhibition of tumour cell growth, NCI panel, 48 h
HCT-116 colon = tested on: HCT-116 colon
HL-60(TB) leukemia = tested on: HL-60(TB) leukemia
HCC-2998 colon = tested on: HCC-2998 colon
UO-31 renal = tested on: UO-31 renal
RPMI-8226 leukemia = tested on: RPMI-8226 leukemia
NCI-H23 lung = tested on: NCI-H23 lung
SK-OV-3 ovarian = tested on: SK-OV-3 ovarian
HOP-62 NSCLC = tested on: HOP-62 NSCLC
A498 renal = tested on: A498 renal
OVCAR-5 ovarian = tested on: OVCAR-5 ovarian

Structure (SMILES)	GI50 (HCT-116 colon)	TGI (HCT-116 colon)	GI50 (HL-60(TB) leukemia)	TGI (HL-60(TB) leukemia)	GI50 (HCC-2998 colon)	TGI (HCC-2998 colon)	GI50 (UO-31 renal)	TGI (UO-31 renal)	GI50 (RPMI-8226 leukemia)	TGI (RPMI-8226 leukemia)	GI50 (NCI-H23 lung)	TGI (NCI-H23 lung)	GI50 (SK-OV-3 ovarian)	TGI (SK-OV-3 ovarian)	GI50 (HOP-62 NSCLC)	TGI (HOP-62 NSCLC)	GI50 (A498 renal)	TGI (A498 renal)	GI50 (OVCAR-5 ovarian)	TGI (OVCAR-5 ovarian)
O=CN1N=C(c2ccc(Cl)cc2)CC1c1cccc(Nc2ccnc3cc(Cl)ccc23)c1 (stereo not drawn)	1.2 µM	4.02 µM	1.27 µM	4.49 µM	3.12 µM	35.3 µM	1.7 µM	> 100 µM	0.611 µM	4.19 µM	1.07 µM	> 100 µM	2.9 µM	> 100 µM	1.21 µM	16.1 µM	0.977 µM	8.97 µM	9.42 µM	> 100 µM
C=C(C)CN(CC#N)CC(=C)C		> 100 µM		> 100 µM		> 100 µM		> 100 µM		> 100 µM		> 100 µM		> 100 µM		> 100 µM		> 100 µM		> 100 µM
C=C1C(=O)[C@@]23CC1C(O)[C@@H](OC(C)=O)[C@@H]2C1(C)C(OC(C)=O)C[C@@H](OC(C)=O)C(C)(C)[C@@H]1C[C@H]3OC(C)=O (stereo partly drawn)	1.45 µM and 1.46 µg/mL	2.98 µM and 2.89 µg/mL	1.89 µM and 0.529 µg/mL	3.67 µM and 3 µg/mL	17.3 µg/mL	> 10 µM and 31.3 µg/mL	> 10 µM and 6.65 µg/mL	> 10 µM and 16.3 µg/mL	1.55 µM and 0.543 µg/mL	4.28 µM and 3.5 µg/mL	7.86 µM and 2.63 µg/mL	> 10 µM and 7.68 µg/mL	> 10 µM and 16.5 µg/mL	> 10 µM and 30.2 µg/mL	19.2 µg/mL	> 10 µM and 34.9 µg/mL	16.3 µg/mL	> 10 µM and 30.6 µg/mL	> 10 µM and 7.32 µg/mL	> 10 µM and 16 µg/mL
Cc1cc(I)cc(CN(C)CCN2CCCC2)c1O	18.3 µM	> 88.1 µM	10.9 µM	34.2 µM	16 µM	35.9 µM	28.7 µM	> 88.9 µM	19.2 µM	46.2 µM	39 µM	> 100 µM	37.9 µM	> 100 µM	24.1 µM	87.5 µM	32.7 µM	67.2 µM	32.8 µM	> 93.6 µM
O=C(Nc1ccc(F)cc1F)c1cc(Br)ccc1O	2.47 µM	8.45 µM	2.44 µM	7.17 µM	3.75 µM	29.9 µM	1.43 µM	6.01 µM	1.69 µM	5.29 µM	2.43 µM	9.21 µM	0.53 µM	3.5 µM	2.69 µM	12.7 µM	1.07 µM	2.75 µM	3.83 µM	> 100 µM
COC(=O)C(C)N(C)C(=O)[C@H](CC(N)=O)N(C)C(=O)[C@@H]1CCCN1C(=O)[C@H](C(C)C)N(C)C(=O)C(C(C)C)N(C)C(=O)[C@@H](NC(=O)OC(C)(C)C)C(C)C (stereo partly drawn) (Boc-V[ξNMeV][NMeV]P[NMeN][ξNMeA]-OMe)	39.3 µM	50 µM and > 100 µM	> 100 µM	50 µM and > 100 µM	> 100 µM	> 100 µM	> 100 µM	50 µM and > 100 µM		> 100 µM		> 50 µM	> 100 µM	> 100 µM	> 100 µM	> 100 µM	> 100 µM	> 100 µM	> 100 µM	> 100 µM
CCCCc1ccc(-n2c3nc(=O)n(C)c(=O)c-3nc3ccccc32)cc1		25.6 µM		32.5 µM		16.3 µM		25.1 µM		57 µM		8.19 µM		> 100 µM		32.6 µM		32.7 µM		32 µM
C1CCN(C2OC3C(COC3N3CCCCC3)OC2OC2CCO[C@@H]2N2CCCCC2)CC1 (stereo partly drawn)		> 100 µM		67.8 µM		> 100 µM		> 100 µM		> 100 µM		78.6 µM		> 100 µM		> 100 µM		> 100 µM		> 100 µM
Cc1occc1C(=S)Nc1ccc(Cl)c(/C=N/OC(C)C)c1		> 51.7 µM		69.8 µM		> 59.6 µM		42.8 µM		> 67.6 µM		52.3 µM		> 56.7 µM		> 60.9 µM		49.9 µM		49.4 µM
O=C(CC12CC3CC(CC(C3)C1)C2)NCCOCCOCCOCCNC(=O)c1cc2c(o1)C(=O)c1ccccc1C2=O	1.87 µM	6.33 µM	1.4 µM	4.98 µM	1.89 µM	3.6 µM	1.51 µM	3.13 µM	1.57 µM	4.61 µM	0.173 µM	1.09 µM	2.55 µM	6.06 µM	1.89 µM	3.33 µM	1.59 µM	3.12 µM	1.75 µM	3.17 µM
COc1ccc(C(=O)OC2C=COC(C)C2OC(=O)c2ccc(OC)cc2)cc1 (stereo not drawn)		21.8 µM		38 µM		> 100 µM		> 100 µM		47.2 µM		36.1 µM		> 100 µM		> 100 µM		> 100 µM		> 100 µM
